{
  "source": "patent US20230024652A1",
  "about": "“PHARMACEUTICAL COMPOSITION COMPRISING SMALL OCTOPUS-DERIVED PEPTIDE FOR TREATMENT OF INFLAMMATORY DISEASE” (NATIONAL MARINE BIODIVERSITY INSTITUTE OF KOREA, priority 2020, published 2023)",
  "test_system": "RAW 264.7 macrophages",
  "experiment": "MTT cell viability / cytotoxicity and cyto-protection",
  "assay_type": "cell-based",
  "details": "62.5 to 500 μg/mL",
  "description": "As macrophages, RAW 264.7 cells (American Type Culture Collection; ATCCUSA) were cultured in DMEM (Gibco/BRL, Canada) supplemented with 10% heat inactivated FBS and 1% antibiotics in 37° C. at 100% humidity under 5% CO2. […] After 24 hours, culture medium containing 3-(4,5-dimethylthiazol-2-yl)-2,5-diphenyltetrazolium bromide (MTT) (0.1 mg/mL) was added to each well. After 1 hour, culture medium was removed, and formazan crystals were dissolved in dimethyl sulfoxide (DMSO) and measured at 550 nm using a microplate reader. The concentration of NO in the culture medium was determined by Griess reagent (Abekura et al. Int Immunopharmacol 68:156, 2019). The cell viability of the control group untreated with Octominin was designated as 100%, which indicates no cytotoxicity",
  "note": "Where a SMILES comes first, the peptide text is derived from it.",
  "data": [
    {"smiles": "CC[C@H](C)[C@H](NC(=O)[C@H](C)NC(=O)[C@H](CCCCN)NC(=O)CNC(=O)[C@H](C)NC(=O)[C@H](Cc1c[nH]cn1)NC(=O)[C@@H](NC(=O)[C@H](C)NC(=O)CNC(=O)[C@H](CCCNC(=N)N)NC(=O)[C@@H](NC(=O)[C@H](CC(C)C)NC(=O)[C@H](Cc1c[nH]c2ccccc12)NC(=O)CN)[C@@H](C)CC)[C@@H](C)CC)C(=O)N[C@@H](Cc1c[nH]cn1)C(=O)NCC(=O)N[C@@H](CC(C)C)C(=O)N[C@H](C(=O)N[C@@H](Cc1c[nH]cn1)C(=O)N[C@@H](CCCNC(=N)N)C(=O)N[C@@H](CCCNC(=N)N)C(=O)N[C@@H](CCCNC(=N)N)C(=O)N[C@@H](Cc1c[nH]cn1)C(=O)O)[C@@H](C)CC", "note": "[Octominin] (H-GWLIRGAIHAGKAIHGLIHRRRH-OH)", "values": [
      {"measurement": "toxicity to macrophages", "result": "non-toxic"},
      {"measurement": "cell viability reduction (cytotoxicity, MTT)", "setting": "RAW 264.7 macrophages without LPS, compared with control group", "result": "did not show any significant cell viability reduction"}
    ]}
  ]
}
